# Experimental data as given in US9321750B2, “ROR modulators and their uses” (INNOV17 LLC, priority 2012, dated 2016).
# Like-named read-outs stand apart in the source and are kept apart here.
# Columns and labels:
# IL-17F [1] = test: TH17 cytokine inhibition as measured by ELISA: IL-17F; assay type: cell-based; conditions: 120 h; human TH17 cells, 5 days differentiation, ELISA of supernatant
# Protocol: (§1) Peripheral blood mononuclear cells (PBMCs) were sourced from freshly prepared leukocyte enriched plasma (buffy coat) from healthy volunteers from which PBMCs were isolated by density gradient centrifugation using Ficoll-Paque™ PLUS (GE Healthcare). Naïve CD4+ T cells were isolated using the Naïve CD4+ T cell Isolation Kit II (Miltenyi Biotec) as per manufacturer's instructions. CD4+ T cells were plated at 5×10^4 cells/well in 96 well plates pre-coated with immobilized human (h)-αCD3 antibody (eBioscience) then differentiated to TH17 cells using h-αCD28, h-αIFNγ, h-αIL4, h-IL6, h-IL23, h-IL1β, h-TGFβ1 (eBioscience) and maintained in a cell culture incubator at 37° C. with 5% CO2 in TexMACS Medium (Miltenyi Biotec) supplemented with 1% Penicillin/Streptomycin (Lonza) over 5 days.
# (§2) Human CD4+ T cells were differentiated to TH17 cells as described in the presence or absence of various concentrations of compounds in a final concentration of 0.1% DMSO in TexMACS medium. Supernatants were collected and stored at −20° C. until they were to be assayed for IL-17A, IL-17F, IL-17AF, IL-21 and/or IL-22 levels as determined by Ready-Set-Go ELISA kits (eBioscience) as per manufacturer's instructions. Endpoint absorbance was read at 450 nm and 570 nm according to manufacturer's instructions (eBioscience) using a microplate reader (Perkin Elmer). The percentage of cytokine inhibition was calculated with reference to DMSO treated cells and the IC50s were determined by GraphPad Prism software and presented in the table below.
# [2] = TH17 cell viability (Prestoblue); assay type: cell-based; design: concentration or dose not given beside the values; conditions: human; percentage of DMSO treated cells; read-out: % viability of compound treated TH17 cells
# Protocol: as §1
# Cells were assayed for viability in the presence or absence of compound using Prestoblue® Cell Viability Reagent (Life Technologies) as per manufacturer's instructions after 30 minutes incubation of TH17 cells with reagent. Absorbance was measured at 570 nm and 600 nm using a microplate reader (Perkin Elmer) and data were analyzed as per manufacturer's instructions. Cell viability was expressed as a percentage of DMSO treated cells.
# RORγ LBD [3] = molecular target: T1, RORγ LBD (Homo sapiens (Human), UniProt P51449); test: TR-FRET co-activator D22 interaction with RORγ LBD; assay type: biochemical
# Text: (§3) The Time-Resolved Fluorescence Resonance Energy Transfer (TR-FRET) assay kit (Life Technologies) was used to measure compound efficacy to disrupt or enhance ligand-mediated interaction of the co-activator and co-repressor peptides with the purified GST-tagged (i) RORγ LBD or (ii) […]. The RORγ LBD and RORα LBD each have a basal level of interaction with the co-activator D22 or co-repressor NCoR1-D2 in the absence of ligand, thus it is possible to identify compounds that inhibit or induce RORγ and/or RORα co-activator/co-repressor interactions, thus determining RORα, RORγ, or RORα/RORγ compound selectivity. The assay was performed as per manufacturer's instructions and TR-FRET was assessed 2 and 20 hours post-assay initiation. Compounds were identified to (i) have no impact on either co-activator displacement or […] from the assessed LBD (ii) promote co-activator displacement from the assessed LBD (iii) promote co-repressor recruitment to the assessed LBD or (iv) concurrently promote co-activator displacement from the assessed LBD and co-repressor recruitment to the assessed LBD.
# RORγ LBD [4] = molecular target: T1, RORγ LBD; test: TR-FRET co-repressor NCoR1-D2 interaction with RORγ LBD; assay type: biochemical
# Text: as §3
# IL-17F [5] = test: Real-time qRT-PCR in TH17 cells: IL-17F gene expression; assay type: cell-based, human; design: key: A: No change in gene expression observed relative to DMSO treated Th17 cells; B: Decreased gene expression observed relative to DMSO treated Th17 cells; C: Increased gene expression observed relative to DMSO treated Th17 cells
# Protocol: as §1
# (§4) RNA was isolated from TH17 cells and cDNA was synthesized using the Verso cDNA kit (Thermo Scientific) as per manufacturer's instructions. IL-17A, IL-17F, IL-21, IL-22, G-CSF, IL-23R and FOXP3 gene expression were determined for compound treated and untreated TH17 cell samples using Solaris qPCR Gene expression assays (Thermo Scientific) with an iCycler iQ Real-Time PCR Detection System (Bio-Rad). Individual gene expression was normalized to a panel of six reference genes (ACTB, TBP, HPRT1, PGK1, TFRC and PPIA) (Thermo Scientific) and analyzed by REST 2009 (Qiagen) in accordance to MIQE guidelines (Bustin et al. (2009) Clin. Chem, 55:611-622). The effects of compounds on TH17 cytokine mRNA levels are presented as fold change in gene expression of compound treated TH17 cells relative to DMSO treated cells in the table below.
# IL-17A [6] = test: TH17 cytokine inhibition as measured by ELISA: IL-17A; assay type: cell-based; conditions: 120 h; human TH17 cells, 5 days differentiation, ELISA of supernatant
# Protocol: as §1, §2
# RORγ LBD [7] = molecular target: T1, RORγ LBD; test: RORγ LBD binding (Human RORγ Assay System, INDIGO Biosciences); conditions: 0.5% DMSO
# Protocol: Compound binding to the human RORγ LBD was assessed using the Human RORγ Assay System (INDIGO Biosciences Inc.) as per manufacturer's instructions.
# IL-21 = test: Real-time qRT-PCR in TH17 cells: IL-21 gene expression; assay type: cell-based, human; design: key: A: No change in gene expression observed relative to DMSO treated Th17 cells; B: Decreased gene expression observed relative to DMSO treated Th17 cells; C: Increased gene expression observed relative to DMSO treated Th17 cells
# Protocol: as §1, §4
# IL-17A [8] = test: Real-time qRT-PCR in TH17 cells: IL-17A gene expression; assay type: cell-based, human; design: key: A: No change in gene expression observed relative to DMSO treated Th17 cells; B: Decreased gene expression observed relative to DMSO treated Th17 cells; C: Increased gene expression observed relative to DMSO treated Th17 cells
# Protocol: as §1, §4
# RORα LBD = RORα LBD (Homo sapiens (Human), UniProt P35398); test: TR-FRET co-repressor NCoR1-D2 interaction with RORα LBD; assay type: biochemical
# Text: as §3
# IL-22 = test: Real-time qRT-PCR in TH17 cells: IL-22 gene expression; assay type: cell-based, human; design: key: A: No change in gene expression observed relative to DMSO treated Th17 cells; B: Decreased gene expression observed relative to DMSO treated Th17 cells; C: Increased gene expression observed relative to DMSO treated Th17 cells
# Protocol: as §1, §4
# [9] = 2 hr, read-out: RORγ EC50 D22 co-activator displacement 2 hr
# [10] = 20 hr, read-out: RORγ EC50 D22 co-activator displacement 20 hr
# [11] = 2 hr, read-out: RORγ EC50 NCoR1-D2 co-repressor recruitment 2 hr
# [12] = 20 hr, read-out: RORγ EC50 NCoR1-D2 co-repressor recruitment 20 hr
# [13] = 2 hr, read-out: RORα EC50 NCoR1-D2 co-repressor recruitment 2 hr
# [14] = 20 hr, read-out: RORα EC50 NCoR1-D2 co-repressor recruitment 20 hr
# RORα LBD, sequence (P35398 272-510): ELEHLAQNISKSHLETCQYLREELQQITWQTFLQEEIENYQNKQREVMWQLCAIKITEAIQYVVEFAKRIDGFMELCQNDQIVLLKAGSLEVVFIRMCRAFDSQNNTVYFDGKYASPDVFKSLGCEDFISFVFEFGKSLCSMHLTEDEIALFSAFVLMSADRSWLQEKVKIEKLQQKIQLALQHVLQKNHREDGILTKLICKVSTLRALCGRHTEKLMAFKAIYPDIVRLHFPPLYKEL
# T1 sequence (P51449 269-508): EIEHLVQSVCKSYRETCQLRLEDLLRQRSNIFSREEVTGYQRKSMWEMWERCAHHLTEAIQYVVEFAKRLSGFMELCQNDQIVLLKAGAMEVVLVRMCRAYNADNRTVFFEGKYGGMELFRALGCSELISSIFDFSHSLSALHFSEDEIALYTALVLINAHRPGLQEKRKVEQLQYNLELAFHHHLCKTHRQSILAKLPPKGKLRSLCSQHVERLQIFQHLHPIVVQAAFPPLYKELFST
Compound,IC50 (IL-17F [1]) [µM],viability [2] [%],EC50 (RORγ LBD [3]; [9]) [µM],EC50 (RORγ LBD [3]; [10]) [µM],EC50 (RORγ LBD [4]; [11]) [µM],EC50 (RORγ LBD [4]; [12]) [µM],Fold change in mRNA level of compound treated TH17 cells relative to DMSO treated cells IL-17F (IL-17F [5]),IC50 (IL-17A [6]) [µM],IC50 (RORγ LBD [7]) [µM],Fold change in mRNA level of compound treated TH17 cells relative to DMSO treated cells IL-21 (IL-21),Fold change in mRNA level of compound treated TH17 cells relative to DMSO treated cells IL-17A (IL-17A [8]),EC50 (RORα LBD; [13]) [µM],EC50 (RORα LBD; [14]) [µM],Fold change in mRNA level of compound treated TH17 cells relative to DMSO treated cells IL-22 (IL-22)
"CS(=O)(=O)Nc1ccc2c(c1)CCCN2Cc1ccc(C(O)(C(F)(F)F)C(F)(F)F)cc1 [Example 5, N-(1-(4-(1,1,1,3,3,3-hexafluoro-2-hydroxypropan-2-yl)benzyl)-1,2,3,4-tetrahydroquinolin-6-yl)methanesulfonamide]",< 10,> 80,> 30,< 30,< 30,< 30,B,< 10,< 10,B,B,< 30,< 30,A
"CC(=O)Nc1ccc2c(c1)CCCN2Cc1ccc(C(O)(C(F)(F)F)C(F)(F)F)cc1 [Example 2, N-(1-(4-(1,1,1,3,3,3-hexafluoro-2-hydroxypropan-2-yl)benzyl)-1,2,3,4-tetrahydroquinolin-6-yl)acetamide]",< 10,> 80,< 30,< 30,> 30,> 30,A,< 10,< 10,A,A,> 30,> 30,A
"CC(=O)Nc1ccc2c(c1)CCN2Cc1ccc(C(O)(C(F)(F)F)C(F)(F)F)cc1 [Example 4, N-(1-(4-(1,1,1,3,3,3-hexafluoro-2-hydroxypropan-2-yl)benzyl)indolin-5-yl)acetamide]",< 10,> 80,< 30,< 30,< 30,< 30,B,< 10,< 10,B,B,> 30,> 30,C
